# Results from article PMC7494739, “Evaluation of Artificial Intelligence in Participating Structure-Based Virtual Screening for Identifying Novel Interleukin-1 Receptor Associated Kinase-1 Inhibitors” (Frontiers in Oncology, 2020).
# pIC50, pKd: −log10 of the molar value.
# Experiments:
# IRAK1 [1] = conditions: Figure 1; cited from earlier work
# IRAK1 [2] = conditions: Figure 1; cited from earlier work; remark: listed apart in the source
# IRAK1 kinase = IRAK1 kinase (Homo sapiens, UniProt P51617); assay: IRAK1 bioactivity test (mobility shift assay); type: biochemical; conditions: for pIC50: Table 3, initial concentration 100 μM, serial 10-fold dilution to 1 nM
# Chain of IRAK1 kinase (P51617 whole entry): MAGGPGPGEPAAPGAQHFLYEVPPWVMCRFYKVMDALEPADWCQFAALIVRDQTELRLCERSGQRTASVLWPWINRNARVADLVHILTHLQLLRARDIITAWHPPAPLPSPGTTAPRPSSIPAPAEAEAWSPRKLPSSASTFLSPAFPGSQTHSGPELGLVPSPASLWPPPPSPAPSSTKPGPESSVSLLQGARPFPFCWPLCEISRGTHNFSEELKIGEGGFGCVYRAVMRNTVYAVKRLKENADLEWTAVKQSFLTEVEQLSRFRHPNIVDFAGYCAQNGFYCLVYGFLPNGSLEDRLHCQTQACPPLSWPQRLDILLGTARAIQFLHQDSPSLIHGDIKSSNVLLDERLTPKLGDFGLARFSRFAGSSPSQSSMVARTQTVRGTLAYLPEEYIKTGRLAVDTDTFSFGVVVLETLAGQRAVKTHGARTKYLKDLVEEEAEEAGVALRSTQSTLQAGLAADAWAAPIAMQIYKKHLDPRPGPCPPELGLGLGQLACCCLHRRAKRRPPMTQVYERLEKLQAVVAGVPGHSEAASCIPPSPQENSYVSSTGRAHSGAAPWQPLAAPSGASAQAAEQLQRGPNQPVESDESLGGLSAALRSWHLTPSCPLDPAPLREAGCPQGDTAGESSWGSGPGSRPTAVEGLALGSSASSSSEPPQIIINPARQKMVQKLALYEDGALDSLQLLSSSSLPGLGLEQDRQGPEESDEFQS
pIC50 (IRAK1 kinase),SMILES,pIC50 (IRAK1 [2]),further results
,CC(C)NC(=O)[C@H]1CC[C@@H](n2/c(=N/C(=O)c3cc(F)cc(F)c3)[nH]c3ccc(CN4CCC(C(C)(C)O)CC4)cc32)CC1 [ALK inhibitor 2],,pKd (IRAK1 [1]): 8.25
,"C1=C/COCc2cc(ccc2OCCN2CCCC2)Nc2nccc(n2)-c2cccc(c2)COC/1 [JAK/FLT3 inhibitor 3, Pacritinib]",7.87,
,COc1cccc(Nc2nnc(-c3cc4ccc(O)cc4oc3=O)s2)c1 [K231-1211],,Inhibition/% (IRAK1 kinase; compound at 20 μM): -10.5%
,O=C(Nc1nc2ccccc2n1CCN1CCOCC1)c1cccc([N+](=O)[O-])c1 [benzimidazole derivative 1],6.52,
4.74,NC(=O)COc1ccc2occ(C(=O)c3ccc(Cl)cc3)c2c1 [compound 4],,
4.62,COc1ccc(C(=O)c2coc3ccc(OCC(N)=O)cc23)cc1OC [compound 5],,
